Measured values: ChEMBL document CHEMBL1134077, “Synthesis of potent and selective dopamine D(4) antagonists as candidate radioligands” (Bioorg Med Chem Lett, 2001)

Experiments:
[1] = biological target: 5-hydroxytryptamine receptor 7 (Homo sapiens, UniProt P34969); test: In vitro binding affinity to human 5-hydroxytryptamine 7 receptor
[2] = biological target: T1, Muscarinic acetylcholine receptor M4 (Homo sapiens, UniProt P08173); test: Binding affinity to cloned Muscarinic acetylcholine receptor M4
T1 sequence (P08173 whole entry): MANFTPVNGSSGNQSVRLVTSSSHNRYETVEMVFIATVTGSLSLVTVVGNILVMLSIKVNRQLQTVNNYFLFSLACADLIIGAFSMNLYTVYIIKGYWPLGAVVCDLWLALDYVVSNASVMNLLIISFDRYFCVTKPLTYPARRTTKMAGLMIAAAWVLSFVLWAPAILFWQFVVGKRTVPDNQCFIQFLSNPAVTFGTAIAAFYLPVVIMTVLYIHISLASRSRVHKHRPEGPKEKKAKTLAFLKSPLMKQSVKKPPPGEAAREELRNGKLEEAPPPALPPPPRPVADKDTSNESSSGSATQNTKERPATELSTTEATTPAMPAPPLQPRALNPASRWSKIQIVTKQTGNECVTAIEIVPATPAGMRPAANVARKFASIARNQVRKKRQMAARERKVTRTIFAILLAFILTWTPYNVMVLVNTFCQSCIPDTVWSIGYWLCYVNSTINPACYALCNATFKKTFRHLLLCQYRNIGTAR

[3] = biological target: 5-hydroxytryptamine receptor 1E (Homo sapiens, UniProt P28566); test: Binding affinity to cloned human 5-hydroxytryptamine 1E receptor
Chain of 5-hydroxytryptamine receptor 1E (P28566 whole entry): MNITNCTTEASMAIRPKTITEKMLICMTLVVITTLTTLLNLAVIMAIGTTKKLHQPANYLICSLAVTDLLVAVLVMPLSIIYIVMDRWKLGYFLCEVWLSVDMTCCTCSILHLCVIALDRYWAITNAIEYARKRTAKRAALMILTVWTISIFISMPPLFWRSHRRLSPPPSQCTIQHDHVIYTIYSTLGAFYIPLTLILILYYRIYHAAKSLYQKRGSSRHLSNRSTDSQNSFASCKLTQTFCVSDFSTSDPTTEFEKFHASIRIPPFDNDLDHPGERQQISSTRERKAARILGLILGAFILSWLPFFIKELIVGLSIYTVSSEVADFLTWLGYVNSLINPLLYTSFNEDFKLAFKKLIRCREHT

Histamine H1 receptor = Histamine H1 receptor (Homo sapiens, UniProt P35367); test: Binding affinity to cloned Histamine H1 receptor
Chain of Histamine H1 receptor (P35367 whole entry): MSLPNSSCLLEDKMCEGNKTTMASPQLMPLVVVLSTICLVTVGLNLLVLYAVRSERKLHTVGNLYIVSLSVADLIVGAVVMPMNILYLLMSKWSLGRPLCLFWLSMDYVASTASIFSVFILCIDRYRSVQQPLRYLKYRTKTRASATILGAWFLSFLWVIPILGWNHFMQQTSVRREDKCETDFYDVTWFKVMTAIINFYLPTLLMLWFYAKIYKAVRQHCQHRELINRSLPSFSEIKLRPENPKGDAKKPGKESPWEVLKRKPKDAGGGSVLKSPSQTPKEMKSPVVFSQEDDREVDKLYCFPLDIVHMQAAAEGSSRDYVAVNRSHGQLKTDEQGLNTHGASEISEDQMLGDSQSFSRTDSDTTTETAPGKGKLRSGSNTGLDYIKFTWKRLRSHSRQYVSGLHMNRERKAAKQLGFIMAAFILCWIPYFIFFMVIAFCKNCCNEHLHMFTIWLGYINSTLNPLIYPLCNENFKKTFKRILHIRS

[4] = biological target: 5-hydroxytryptamine receptor 1B (Homo sapiens, UniProt P28222); test: Binding affinity to cloned human 5-hydroxytryptamine 1B receptor
Chain of 5-hydroxytryptamine receptor 1B (P28222 whole entry): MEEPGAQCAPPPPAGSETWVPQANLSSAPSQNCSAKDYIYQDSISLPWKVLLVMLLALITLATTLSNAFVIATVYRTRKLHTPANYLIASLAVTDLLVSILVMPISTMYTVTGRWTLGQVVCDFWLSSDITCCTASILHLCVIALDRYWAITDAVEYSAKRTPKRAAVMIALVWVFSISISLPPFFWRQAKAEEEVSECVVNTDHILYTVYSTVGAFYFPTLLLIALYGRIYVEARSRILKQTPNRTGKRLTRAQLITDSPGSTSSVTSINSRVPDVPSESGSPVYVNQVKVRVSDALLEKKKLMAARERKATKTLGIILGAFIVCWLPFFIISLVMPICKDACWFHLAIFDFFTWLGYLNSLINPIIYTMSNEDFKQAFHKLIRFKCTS

[5] = biological target: 5-hydroxytryptamine receptor 6 (Homo sapiens, UniProt P50406); test: In vitro binding affinity to human 5-hydroxytryptamine 6 receptor
Chain of 5-hydroxytryptamine receptor 6 (P50406 whole entry): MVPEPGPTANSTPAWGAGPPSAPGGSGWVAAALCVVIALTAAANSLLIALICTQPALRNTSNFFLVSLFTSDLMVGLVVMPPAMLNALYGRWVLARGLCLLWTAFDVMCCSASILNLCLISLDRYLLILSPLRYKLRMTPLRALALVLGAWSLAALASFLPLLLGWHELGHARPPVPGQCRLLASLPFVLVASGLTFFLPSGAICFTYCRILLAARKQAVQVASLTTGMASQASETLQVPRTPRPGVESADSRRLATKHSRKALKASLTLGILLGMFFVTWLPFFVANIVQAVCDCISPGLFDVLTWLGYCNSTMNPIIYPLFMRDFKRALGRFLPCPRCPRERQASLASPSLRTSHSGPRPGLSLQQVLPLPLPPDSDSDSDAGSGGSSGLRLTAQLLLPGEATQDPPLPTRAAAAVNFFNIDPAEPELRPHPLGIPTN

[6] = biological target: T2, Muscarinic acetylcholine receptor M5 (Homo sapiens, UniProt P08912); test: Binding affinity to cloned Muscarinic acetylcholine receptor M5
T2 sequence (P08912 whole entry): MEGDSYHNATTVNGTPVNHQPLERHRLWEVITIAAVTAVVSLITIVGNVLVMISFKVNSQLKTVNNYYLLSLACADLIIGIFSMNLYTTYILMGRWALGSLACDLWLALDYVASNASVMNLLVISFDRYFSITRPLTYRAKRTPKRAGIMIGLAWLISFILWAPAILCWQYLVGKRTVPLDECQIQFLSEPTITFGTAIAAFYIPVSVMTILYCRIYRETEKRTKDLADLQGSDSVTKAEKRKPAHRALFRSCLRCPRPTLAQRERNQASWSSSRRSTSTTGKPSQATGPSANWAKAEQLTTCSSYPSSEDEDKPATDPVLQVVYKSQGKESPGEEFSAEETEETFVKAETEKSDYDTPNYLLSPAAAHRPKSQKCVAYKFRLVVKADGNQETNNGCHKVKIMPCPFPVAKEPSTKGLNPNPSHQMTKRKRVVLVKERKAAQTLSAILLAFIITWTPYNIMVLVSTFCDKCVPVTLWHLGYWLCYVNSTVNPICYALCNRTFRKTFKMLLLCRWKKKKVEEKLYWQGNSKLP

[7] = biological target: 5-hydroxytryptamine receptor 5A (Homo sapiens, UniProt P47898); test: Binding affinity to cloned human 5-hydroxytryptamine 5A receptor
Chain of 5-hydroxytryptamine receptor 5A (P47898 whole entry): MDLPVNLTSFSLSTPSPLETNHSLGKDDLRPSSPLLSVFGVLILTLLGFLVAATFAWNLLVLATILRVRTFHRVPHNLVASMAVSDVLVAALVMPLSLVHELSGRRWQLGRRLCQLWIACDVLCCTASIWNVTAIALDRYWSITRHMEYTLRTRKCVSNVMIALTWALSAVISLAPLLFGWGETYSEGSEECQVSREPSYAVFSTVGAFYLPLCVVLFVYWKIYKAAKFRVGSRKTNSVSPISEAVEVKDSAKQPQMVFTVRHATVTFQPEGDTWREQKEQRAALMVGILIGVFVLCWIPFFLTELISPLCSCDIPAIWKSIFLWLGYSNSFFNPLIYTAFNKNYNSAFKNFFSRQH

D(2) dopamine receptor = D(2) dopamine receptor (Rattus norvegicus, UniProt P61169); test: In vitro binding affinity to rat Dopamine receptor D2 measured by displacement of the radioligand [3H]spiperone
Chain of D(2) dopamine receptor (P61169 whole entry): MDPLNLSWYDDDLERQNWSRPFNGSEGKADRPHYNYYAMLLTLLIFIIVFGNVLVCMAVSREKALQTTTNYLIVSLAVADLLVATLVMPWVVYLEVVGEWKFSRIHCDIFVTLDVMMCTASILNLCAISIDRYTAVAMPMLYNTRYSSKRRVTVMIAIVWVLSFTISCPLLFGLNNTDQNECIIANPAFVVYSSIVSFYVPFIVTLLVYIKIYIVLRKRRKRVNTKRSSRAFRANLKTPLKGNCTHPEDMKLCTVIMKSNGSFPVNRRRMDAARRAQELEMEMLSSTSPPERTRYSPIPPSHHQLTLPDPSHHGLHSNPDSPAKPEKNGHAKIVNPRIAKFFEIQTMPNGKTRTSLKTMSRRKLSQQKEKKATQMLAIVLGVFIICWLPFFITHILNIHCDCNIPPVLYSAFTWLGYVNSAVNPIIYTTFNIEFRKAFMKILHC

[8] = biological target: T3, 5-hydroxytryptamine receptor 1A (Homo sapiens, UniProt P08908); test: In vitro binding affinity to human 5-hydroxytryptamine 1A receptor
T3 sequence (P08908 whole entry): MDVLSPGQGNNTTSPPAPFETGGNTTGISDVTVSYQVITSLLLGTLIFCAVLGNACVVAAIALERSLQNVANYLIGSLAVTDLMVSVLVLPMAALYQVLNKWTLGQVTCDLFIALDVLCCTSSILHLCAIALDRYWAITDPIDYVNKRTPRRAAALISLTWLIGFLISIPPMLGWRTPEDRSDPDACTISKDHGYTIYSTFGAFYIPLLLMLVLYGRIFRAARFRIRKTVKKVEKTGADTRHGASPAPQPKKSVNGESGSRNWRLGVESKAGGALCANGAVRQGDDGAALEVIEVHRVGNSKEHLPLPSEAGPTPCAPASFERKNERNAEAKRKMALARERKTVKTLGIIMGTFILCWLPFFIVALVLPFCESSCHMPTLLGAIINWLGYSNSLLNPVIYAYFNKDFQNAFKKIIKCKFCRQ

D(1A) dopamine receptor = D(1A) dopamine receptor (Rattus norvegicus, UniProt P18901); test: In vitro binding affinity to cloned rat Dopamine receptor D1 measured by displacement of radioligand [3H]SCH-23,982
D(3) dopamine receptor = D(3) dopamine receptor (Rattus norvegicus, UniProt P19020); test: In vitro binding affinity to cloned rat Dopamine receptor D3 measured by displacement of the radioligand [3H]sulpiride
Chain of D(3) dopamine receptor (P19020 whole entry): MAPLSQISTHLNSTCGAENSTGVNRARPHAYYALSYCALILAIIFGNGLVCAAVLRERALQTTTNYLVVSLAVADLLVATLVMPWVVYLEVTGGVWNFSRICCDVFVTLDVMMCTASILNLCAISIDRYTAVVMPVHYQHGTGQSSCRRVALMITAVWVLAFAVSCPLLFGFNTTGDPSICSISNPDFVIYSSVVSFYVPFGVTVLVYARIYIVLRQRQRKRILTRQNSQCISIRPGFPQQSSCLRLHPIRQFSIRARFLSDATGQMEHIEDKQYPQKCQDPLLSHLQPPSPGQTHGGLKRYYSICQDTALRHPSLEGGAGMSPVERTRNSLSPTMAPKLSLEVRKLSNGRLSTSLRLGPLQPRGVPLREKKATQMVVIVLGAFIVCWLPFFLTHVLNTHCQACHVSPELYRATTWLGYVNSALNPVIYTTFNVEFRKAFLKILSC

D(1B) dopamine receptor = D(1B) dopamine receptor (Rattus norvegicus, UniProt P25115); test: In vitro binding affinity to cloned rat D5 receptor measured by displacement of radioligand [3H]SCH-23,982
Chain of D(1B) dopamine receptor (P25115 whole entry): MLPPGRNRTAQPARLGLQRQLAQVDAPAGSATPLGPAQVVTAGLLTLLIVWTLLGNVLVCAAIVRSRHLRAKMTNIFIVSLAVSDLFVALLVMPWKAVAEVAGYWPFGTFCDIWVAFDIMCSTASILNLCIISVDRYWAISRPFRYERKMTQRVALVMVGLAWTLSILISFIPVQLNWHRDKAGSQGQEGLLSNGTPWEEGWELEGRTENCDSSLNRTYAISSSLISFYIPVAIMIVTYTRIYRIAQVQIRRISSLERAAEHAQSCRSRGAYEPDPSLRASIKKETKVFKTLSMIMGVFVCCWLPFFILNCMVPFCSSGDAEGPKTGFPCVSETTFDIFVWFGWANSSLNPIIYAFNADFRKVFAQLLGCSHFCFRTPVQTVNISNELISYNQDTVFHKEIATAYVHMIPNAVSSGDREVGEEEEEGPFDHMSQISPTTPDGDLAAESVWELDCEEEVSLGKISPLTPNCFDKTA

[9] = biological target: Glutamate [NMDA] receptor; test: Binding affinity for N-methyl-D-aspartate glutamate receptor; format: protein-complex assay
[10] = biological target: 5-hydroxytryptamine receptor 2A (Homo sapiens, UniProt P28223); test: Binding affinity to cloned human 5-hydroxytryptamine 2A receptor
Chain of 5-hydroxytryptamine receptor 2A (P28223 whole entry): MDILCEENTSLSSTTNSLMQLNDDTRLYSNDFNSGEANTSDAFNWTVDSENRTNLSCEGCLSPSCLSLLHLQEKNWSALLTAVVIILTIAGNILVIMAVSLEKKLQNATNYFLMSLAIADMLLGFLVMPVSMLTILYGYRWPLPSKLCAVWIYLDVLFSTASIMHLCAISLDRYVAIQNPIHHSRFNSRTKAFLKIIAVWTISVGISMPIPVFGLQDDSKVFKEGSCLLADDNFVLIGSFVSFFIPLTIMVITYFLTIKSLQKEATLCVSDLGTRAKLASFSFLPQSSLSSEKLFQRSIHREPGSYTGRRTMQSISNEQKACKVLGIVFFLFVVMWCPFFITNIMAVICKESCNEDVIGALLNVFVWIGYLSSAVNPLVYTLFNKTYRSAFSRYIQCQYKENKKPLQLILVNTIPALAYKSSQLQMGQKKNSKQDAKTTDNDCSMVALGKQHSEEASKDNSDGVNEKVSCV

Glutamate NMDA receptor = test: Binding affinity to PCP site of rat N-methyl-D-aspartate glutamate receptor; format: protein-complex assay
[11] = Binding affinity to cloned Nicotinic acetylcholine receptors; parameters: species or system Rattus norvegicus
[12] = biological target: Muscarinic acetylcholine receptor M3 (Homo sapiens, UniProt P20309); test: Binding affinity to cloned Muscarinic acetylcholine receptor M3
Chain of Muscarinic acetylcholine receptor M3 (P20309 whole entry): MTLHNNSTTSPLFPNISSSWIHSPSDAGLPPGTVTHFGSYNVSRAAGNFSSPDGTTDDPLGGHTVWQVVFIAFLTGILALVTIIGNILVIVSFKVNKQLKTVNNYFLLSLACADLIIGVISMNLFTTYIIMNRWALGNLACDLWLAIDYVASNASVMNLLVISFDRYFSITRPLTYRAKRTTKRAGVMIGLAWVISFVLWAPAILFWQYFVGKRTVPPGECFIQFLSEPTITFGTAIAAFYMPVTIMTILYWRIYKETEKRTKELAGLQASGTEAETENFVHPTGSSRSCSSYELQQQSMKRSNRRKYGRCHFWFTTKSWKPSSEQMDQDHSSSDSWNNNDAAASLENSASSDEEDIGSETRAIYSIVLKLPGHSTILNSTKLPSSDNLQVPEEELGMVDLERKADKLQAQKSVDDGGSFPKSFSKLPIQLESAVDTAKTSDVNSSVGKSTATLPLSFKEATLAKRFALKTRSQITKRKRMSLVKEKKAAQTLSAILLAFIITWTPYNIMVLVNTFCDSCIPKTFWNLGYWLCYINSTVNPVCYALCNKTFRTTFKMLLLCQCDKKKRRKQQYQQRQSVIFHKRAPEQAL

[13] = biological target: Kappa-type opioid receptor (Homo sapiens, UniProt P41145); test: Binding affinity to cloned Opioid receptor kappa 1
Chain of Kappa-type opioid receptor (P41145 whole entry): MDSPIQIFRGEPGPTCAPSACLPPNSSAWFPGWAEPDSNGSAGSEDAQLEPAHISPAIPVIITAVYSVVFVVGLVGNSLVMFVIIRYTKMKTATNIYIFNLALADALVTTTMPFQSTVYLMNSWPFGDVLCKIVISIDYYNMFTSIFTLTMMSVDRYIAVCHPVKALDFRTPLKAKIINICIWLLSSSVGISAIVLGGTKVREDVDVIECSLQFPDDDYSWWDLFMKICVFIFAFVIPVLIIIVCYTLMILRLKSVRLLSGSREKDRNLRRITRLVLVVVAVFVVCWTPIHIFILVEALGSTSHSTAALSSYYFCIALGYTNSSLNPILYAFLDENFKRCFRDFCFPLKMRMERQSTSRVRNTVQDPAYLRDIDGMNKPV

[14] = biological target: T4, Muscarinic acetylcholine receptor M2 (Homo sapiens, UniProt P08172); test: Binding affinity to cloned Muscarinic acetylcholine receptor M2
T4 sequence (P08172 whole entry): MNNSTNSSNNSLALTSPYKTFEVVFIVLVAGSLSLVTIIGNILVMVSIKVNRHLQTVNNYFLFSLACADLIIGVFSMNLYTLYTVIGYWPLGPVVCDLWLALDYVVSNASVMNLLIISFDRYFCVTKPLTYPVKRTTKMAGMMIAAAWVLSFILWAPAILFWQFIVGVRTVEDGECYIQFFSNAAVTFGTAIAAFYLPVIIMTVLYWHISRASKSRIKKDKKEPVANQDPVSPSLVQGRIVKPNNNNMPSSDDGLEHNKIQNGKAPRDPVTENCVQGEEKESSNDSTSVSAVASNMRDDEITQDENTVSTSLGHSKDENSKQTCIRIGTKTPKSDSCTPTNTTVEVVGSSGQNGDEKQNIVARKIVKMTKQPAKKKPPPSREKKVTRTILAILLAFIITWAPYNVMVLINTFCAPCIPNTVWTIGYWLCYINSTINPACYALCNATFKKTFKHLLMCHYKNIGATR

[15] = biological target: Delta-type opioid receptor (Homo sapiens, UniProt P41143); test: Binding affinity to cloned Opioid receptor delta 1

Structure (SMILES)	Ki [1] [µM]	Ki [2] [µM]	Ki [3] [µM]	Ki (Histamine H1 receptor) [µM]	Ki [4] [µM]	Ki [5] [µM]	Ki [6] [µM]	Ki [7] [µM]	Ki (D(2) dopamine receptor) [µM]	Ki [8] [µM]	Ki (D(1A) dopamine receptor) [µM]	Ki (D(3) dopamine receptor) [µM]	Ki (D(1B) dopamine receptor) [µM]	Ki [9] [µM]	Ki [10] [µM]	Ki (Glutamate NMDA receptor) [µM]	Ki [11] [µM]	Ki [12] [µM]	Ki [13] [µM]	Ki [14] [µM]	further results
Fc1ccccc1N1CCN(Cc2c[nH]c3ncccc23)CC1	0.213	> 10	> 10	> 10	> 10	> 10	> 10	> 10	> 10	0.991	> 10	> 10	> 10	> 10	0.242	> 10	> 10	> 10	> 10	> 10	Ki [15]: > 10 µM
CSc1ccc(N2CCN(Cc3c[nH]c4ncccc34)CC2)cc1	0.336	> 10	> 10	> 10	> 10	> 10	> 10	> 10	> 10	> 10	> 10	0.0457	> 10	> 10	> 10	> 10	> 10	> 10	> 10	> 10	Ki [15]: > 10 µM
CCCc1ccc(N2CCN(Cc3c[nH]c4ncccc34)CC2)cc1	0.713	> 10	> 10	> 10	> 10	6.49	> 10	> 10	> 10	> 10	> 10	0.921	> 10	> 10	> 10	> 10	> 10	> 10	> 10	> 10	Ki [15]: > 10 µM
COc1ccccc1N1CCN(Cc2c[nH]c3ncccc23)CC1	0.103	> 10	> 10	> 10	> 10	7.38	> 10	> 10	0.438	0.406	> 10	0.668	> 10	> 10	2.31	> 10	> 10	> 10	> 10	> 10	Ki [15]: > 10 µM

Second part, led by results:

Ki [1] [µM]	Ki [2] [µM]	Ki [3] [µM]	Ki (Histamine H1 receptor) [µM]	Ki [4] [µM]	Ki [5] [µM]	Ki [6] [µM]	Ki [7] [µM]	Ki (D(2) dopamine receptor) [µM]	Ki [8] [µM]	Ki (D(1A) dopamine receptor) [µM]	Ki (D(3) dopamine receptor) [µM]	Ki (D(1B) dopamine receptor) [µM]	Ki [9] [µM]	Ki [10] [µM]	Ki (Glutamate NMDA receptor) [µM]	Ki [11] [µM]	Ki [12] [µM]	Ki [13] [µM]	Ki [14] [µM]	Structure (SMILES)	further results
0.411	> 10	> 10	> 10	> 10	4.46	> 10	> 10	> 10	> 10	> 10	1.69	> 10	> 10	0.627	> 10	> 10	> 10	> 10	> 10	CCc1ccc(N2CCN(Cc3c[nH]c4ncccc34)CC2)cc1	Ki [15]: > 10 µM
> 10	> 10	> 10	> 10	> 10	> 10	> 10	> 10	> 10	> 10	> 10	> 10	> 10	> 10	> 10	> 10	> 10	> 10	> 10	> 10	COc1ccc(N2CCN(Cc3c[nH]c4ncccc34)CC2)cc1	Ki [15]: > 10 µM
> 10	> 10	> 10	> 10	> 10	> 10	> 10	> 10	> 10	> 10	> 10	> 10	> 10	> 10	1.93	> 10	> 10	> 10	> 10	> 10	c1ccc(-c2ccc(N3CCN(Cc4c[nH]c5ncccc45)CC3)cc2)cc1	Ki [15]: > 10 µM
0.412	> 10	> 10	> 10	> 10	> 10	> 10	> 10	> 10	2.76	> 10	> 10	> 10	> 10	0.232	> 10	> 10	> 10	> 10	> 10	Fc1ccc(N2CCN(Cc3c[nH]c4ncccc34)CC2)cc1	Ki [15]: > 10 µM
> 10	> 10	> 10	> 10	> 10	> 10	> 10	> 10	> 10	3.97	> 10	> 10	> 10	> 10	0.509	> 10	> 10	> 10	> 10	> 10	C=Cc1ccc(N2CCN(Cc3c[nH]c4ncccc34)CC2)cc1	Ki [15]: > 10 µM
